The record followed here is patent publication US9409893B2, “Heteroaryl derivatives and uses thereof” (Jacobus Pharmaceutical Company, Inc., priority 2012, dated 2016).

One experiment has as its system P. falciparum strain W2. Kind of experiment: [3H]-hypoxanthine growth inhibition assay, P. falciparum W2. As to conditions: Plasmodium falciparum. The experiment is classed as cell-based. How it is done: (§1) The potential for antimalarial activity against Plasmodium falciparum was determined by measuring the incorporation of tritiated hypoxanthine into parasitized red blood cells.
(§2) Stock solutions of the test compounds and the reference drug chloroquine (CQ) (Sigma Chemicals C-6628, Lot #059H0919) were prepared in silanized glass vials with AquaSil™ (Pierce, USA) to minimize absorption of the compounds to glassware. All test compounds were dissolved in DMSO (Sigma Cat No. #D8418) to 1 mM concentration, whereas CQ was dissolved in 50% methanol at a concentration of 1.6 mg/ml (base). Stock solutions were stored at −20° C.
(§3) The P. falciparum laboratory adapted strains utilized in this project (Table 1) were in vitro cultured and routinely maintained in RPMI-1640-LPLF complete medium, which contained low concentrations of para-amino benzoic acid (0.0005 mg/L) and folic acid (0.01 mg/L).
(§4) The low concentration of folic acid in RPMI-1640-LPLF prevents inhibition of the compound if its activity targets the parasite's folate metabolic pathway. Parasites were cultured in human red blood cells (RBCs) in vitro at 37° C. in special gas mixture (5% O2, 5% CO2 and 90% N2) as described Trager and Jensen (1979 Science 193:673-675).
(§5) Base cultivation medium consisted of 10.4 g/L RPMI-1640-LPLF powder (Gibco BRL), 5.97 g/L HEPES buffer (MP Biomedicals, USA), 2.0 g/L D-glucose (BDH chemicals, Australia), 0.05 g/L hypoxanthine (Sigma, USA) and 40 mg/L gentamycin (Pfizer, Australia). The pH of the medium was adjusted to 6.9 and the solution was filtered using 0.2 μm pore size (AcroCap, Gelman Science, USA). Complete medium was prepared by adding sodium bicarbonate solution (final concentration, 0.21%) and drug-free heat-inactivated human plasma, pooled from various blood types, obtained from the Australian Red Cross Blood Service (Brisbane) (final concentration, 10%) to the base RPMI-1640-LPLF. For [^3H]-hypoxanthine inhibition growth assay, RPMI-1640-LPLF complete medium which lacked [^3H]-hypoxanthine ([^3H]-RPMI-1640-LPLF) was used to prevent uptake of hypoxanthine by parasites, as radioactive hypoxanthine uptake is measured as a surrogate marker of growth. All complete medium was used within three days of preparation. See DE (Para) SOP 002 for methodology.
(§6) Red blood cells (RBC) were required for P. falciparum parasites to proliferate in vitro. 0 (Rh+) type blood was obtained from the Australian Red Cross Blood Service. The RBC were washed twice in phosphate-buffered saline (PBS) and once in [^3H]-RPMI-1640-LPLF complete medium by centrifugation at 1,500×g for 5 min. Following the final wash, the haematocrit was measured as the percent of RBC to total culture volume. The haematocrit was adjusted to 50% by removing or adding [^3H]-RPMI-LPLF complete medium. See DE (Para) SOP 003 for methodology.
(§7) All P. falciparum strains were grown in RPMI-1640-LPLF complete medium at 4% haematocrit and 1% to 8% parasitaemia at 37° C. in sealed flasks in a gas mixture of 5% O2, 5% CO2 and 90% N2 (BOC Gases, Brisbane, Australia). For drug susceptibility assays cultures were routinely synchronized when the majority of parasites (>85%) were at early trophozoite (ring) stage. Synchronization involved removing the more mature erythrocytic parasite stages by lysis, resulting in the retention only of early trophozoite (ring) stages. Synchronization was performed by re-suspending the infected red blood cell (iRBC) pellet in 5 to 10 times its volume of 5% D-sorbitol (Bacto Laboratories Pty. Ltd., Australia) for 5 min (Lambros and Vanderberg, 1979 J Parasitol 65: 418-420). The mixture was centrifuged (1,500 rpm for 5 min) and the supernatant removed. The iRBC were washed twice using PBS buffer and once using [^3H]-RPMI-LPLF plain medium. Following synchronization, a new culture was prepared with an initial parasitaemia of 1% in RPMI-LPLF complete medium. See DE (Para) SOP 008 for methodology.

The next experiment has as its system P. falciparum strain D6. Kind of experiment: [3H]-hypoxanthine growth inhibition assay, P. falciparum D6. In kind it is cell-based. Conditions: Plasmodium falciparum. How it is done:
as §1, §2, §3, §4, §5, §6, §7

Where [1] appears, read: P. falciparum W2 (resistant to chloroquine and pyrimethamine), [3H]-hypoxanthine incorporation, read-out: W2 IC50.
[2] abbreviates: P. falciparum D6 (sensitive to chloroquine and pyrimethamine), [3H]-hypoxanthine incorporation, read-out: D6 IC50.

Where a name gives a salt, the structure may show the parent alone. Read-outs that look alike come from different tables or passages of the source.

By IC50 is commonly meant the concentration at which inhibition is half-maximal.

For the compound `CC(C)(C)NCc1cc(C(C)(C)C)cc(-c2ccc(Cl)s2)c1O` [Example 2, 4-(tert-Butyl)-2-((tert-butylamino)methyl)-6-(5-chlorothiophen-2-yl)phenol hydrochloride], the values for the IC50 with P. falciparum strain W2 (setting [1]) and in the experiment with P. falciparum strain D6 (setting [2]) were 25 nM and 45 nM, respectively.
On to `CC(C)(C)NCc1cc(C(C)(C)C)cc(-c2cnc3ccccc3c2)c1O` [Example 3, 4-(tert-Butyl)-2-((tert-butylamino)methyl)-6-(quinolin-3-yl)phenol dihydrochloride], for which the half-inhibitory concentration (IC50) in the experiment on P. falciparum strain W2 (W2, read-out: W2 IC50) came to 22 nM; with P. falciparum strain D6 (D6, read-out: D6 IC50), 26 nM.
On the same counts, the results for `CC(C)(C)NCc1cc(C(C)(C)C)cc(-c2cccc3ncccc23)c1O` [Example 4, 4-(tert-Butyl)-2-((tert-butylamino)methyl)-6-(quinolin-5-yl)phenol dihydrochloride] are 200 nM and 144 nM.
On the same counts, the results for `CC(C)(C)NCc1cc(C(C)(C)C)cc(-c2ccc3ncccc3c2)c1O` [Example 5, 4-(tert-Butyl)-2-((tert-butylamino)methyl)-6-(quinolin-6-yl)phenol dihydrochloride] are 25 nM and 37 nM.
As to `CC(C)(C)NCc1cc(C(C)(C)C)cc(-c2cc3ccccc3o2)c1O` [Example 6, 2-(Benzofuran-2-yl)-4-(tert-butyl)-6-((tert-butylamino)methyl)phenol hydrochloride], the half-maximal inhibitory concentration (IC50) in the experiment with P. falciparum strain W2 (setting [1]) came out at 13 nM; in the experiment with P. falciparum strain D6 (setting [2]), 31 nM.
On the same counts, the results for `CC(C)(C)NCc1cc(C(C)(C)C)cc(-c2cc3ccccc3s2)c1O` [Example 7, 2-(Benzo[b]thiophen-2-yl)-4-(tert-butyl)-6-((tert-butylamino)methyl)phenol hydrochloride] are 9 nM and 18 nM.
Take `CC(C)(C)NCc1cc(C(C)(C)C)cc(-c2ccnc3ccccc23)c1O` [Example 8, 4-(tert-Butyl)-2-((tert-butylamino)methyl)-6-(quinolin-4-yl)phenol dihydrochloride]: the IC50 with P. falciparum strain W2 (W2, read-out: W2 IC50) was 94 nM; in the experiment with P. falciparum strain D6 (D6, read-out: D6 IC50) it was 109 nM.
Regarding `Cn1nc(C(F)(F)F)cc1-c1cc(C(C)(C)C)cc(CNC(C)(C)C)c1O` [Example 9, 4-(tert-Butyl)-2-((tert-butylamino)methyl)-6-(1-methyl-3-(trifluoromethyl)-1H-pyrazol-5-yl)phenol hydrochloride], the IC50 in the experiment on P. falciparum strain W2 (setting [1]) was 48 nM; in the experiment with P. falciparum strain D6 (setting [2]) it was 94 nM.
`CC(C)Oc1ccc(-c2cc(C(C)(C)C)cc(CNC(C)(C)C)c2O)cn1` [Example 10, 4-(tert-Butyl)-2-((tert-butylamino)methyl)-6-(6-isopropoxypyridin-3-yl)phenol dihydrochloride]: the IC50 came to 11 nM in the experiment with P. falciparum strain W2 (W2, read-out: W2 IC50) and 25 nM with P. falciparum strain D6 (D6, read-out: D6 IC50).
On the same counts, the results for `CC(C)(C)NCc1cc(C(C)(C)C)cc(-c2ccc(N)nc2)c1O` [Example 11, 2-(6-Aminopyridin-3-yl)-4-(tert-butyl)-6-((tert-butylamino)methyl)phenol dihydrochloride] are 398 nM and 350 nM.
For `COc1ccc(-c2cc(C(C)(C)C)cc(CNC(C)(C)C)c2O)cn1` [Example 12, 4-(tert-Butyl)-2-((tert-butylamino)methyl)-6-(6-methoxypyridin-3-yl)phenol dihydrochloride] the same measures were 14 nM and 23 nM.
Consider `CC(C)(C)NCc1cc(C(C)(C)C)cc(-c2cncc3ccccc23)c1O` [Example 13, 4-(tert-Butyl)-2-((tert-butylamino)methyl)-6-(isoquinolin-4-yl)phenol dihydrochloride], for which the IC50 with P. falciparum strain W2 (W2, read-out: W2 IC50) amounted to 85 nM; in the experiment on P. falciparum strain D6 (D6, read-out: D6 IC50), 73 nM.
On the same counts, the results for `CN(C)c1ccc(-c2cc(C(C)(C)C)cc(CNC(C)(C)C)c2O)cn1` [Example 14, 4-(tert-Butyl)-2-((tert-butylamino)methyl)-6-(6-(dimethylamino)pyridin-3-yl)phenol dihydrochloride] are 14 nM and 23 nM.
Regarding `CC(C)(C)NCc1cc(C(C)(C)C)cc(-c2ccc(N3CCCC3)nc2)c1O` [Example 15, 4-(tert-Butyl)-2-((tert-butylamino)methyl)-6-(6-(pyrrolidin-1-yl)pyridin-3-yl)phenol dihydrochloride], the IC50 with P. falciparum strain W2 (W2, read-out: W2 IC50) was 16 nM; in the experiment on P. falciparum strain D6 (D6, read-out: D6 IC50), 24 nM.
For `COc1cc(-c2cc(C(C)(C)C)cc(CNC(C)(C)C)c2O)ccn1` [Example 16, 4-(tert-Butyl)-2-((tert-butylamino)methyl)-6-(2-methoxypyridin-4-yl)phenol dihydrochloride] the same measures were 11 nM and 26 nM.
With `COc1cncc(-c2cc(C(C)(C)C)cc(CNC(C)(C)C)c2O)c1` [Example 17, 4-(tert-Butyl)-2-((tert-butylamino)methyl)-6-(5-methoxypyridin-3-yl)phenol dihydrochloride], the IC50 came to 25 nM in the experiment on P. falciparum strain W2 (W2, read-out: W2 IC50) and 30 nM with P. falciparum strain D6 (D6, read-out: D6 IC50).
In the case of `CC(C)(C)NCc1cc(C(C)(C)C)cc(-c2cncc(C(F)(F)F)c2)c1O` [Example 18, 4-(tert-Butyl)-2-((tert-butylamino)methyl)-6-(5-(trifluoromethyl)pyridin-3-yl)phenol 1.4 hydrochloride], the IC50 with P. falciparum strain W2 (setting [1]) stood at 12 nM; in the experiment with P. falciparum strain D6 (setting [2]) it was 25 nM.
On the same counts, the results for `CC(C)(C)NCc1cc(C(C)(C)C)cc(-c2ccnc(C(F)(F)F)c2)c1O` [Example 20, 4-(tert-Butyl)-2-((tert-butylamino)methyl)-6-(2-(trifluoromethyl)pyridin-4-yl)phenol hydrochloride] are 9 nM and 21 nM.
`CC(C)(C)NCc1cc(C(C)(C)C)cc(-c2cncc(Cl)c2)c1O` [Example 21, 4-(tert-Butyl)-2-((tert-butylamino)methyl)-6-(5-chloropyridin-3-yl)phenol dihydrochloride]: the IC50 in the experiment with P. falciparum strain W2 (W2, read-out: W2 IC50) was 8 nM; in the experiment on P. falciparum strain D6 (D6, read-out: D6 IC50) it was 17 nM.
Turning to `CC(C)(C)NCc1cc(C(C)(C)C)cc(-c2ccc(C(C)(C)C)nc2)c1O` [Example 22, 4-(tert-Butyl)-2-(6-(tert-butyl)pyridin-3-yl)-6-((tert-butylamino)methyl)phenol dihydrochloride], the IC50 with P. falciparum strain W2 (W2, read-out: W2 IC50) came out at 24 nM; with P. falciparum strain D6 (D6, read-out: D6 IC50) it was 64 nM.
With `CC(C)(C)NCc1cc(C(C)(C)C)cc(-c2ccc(Cl)nc2)c1O` [Example 23, 4-(tert-Butyl)-2-((tert-butylamino)methyl)-6-(6-chloropyridin-3-yl)phenol hydrochloride], the IC50 in the experiment with P. falciparum strain W2 (setting [1]) is 12 nM; in the experiment with P. falciparum strain D6 (setting [2]), 19 nM.
Consider `Cc1ccc(-c2cc(C(C)(C)C)cc(CNC(C)(C)C)c2O)nc1` [Example 25, 4-(tert-Butyl)-2-((tert-butylamino)methyl)-6-(5-methylpyridin-2-yl)phenol dihydrochloride], for which the IC50 in the experiment with P. falciparum strain W2 (W2, read-out: W2 IC50) is no less than 20000 nM; in the experiment on P. falciparum strain D6 (D6, read-out: D6 IC50), no less than 20000 nM.
For `CC(C)(C)NCc1cc(C(C)(C)C)cc(-c2ccc(F)cn2)c1O` [Example 26, 4-(tert-Butyl)-2-((tert-butylamino)methyl)-6-(5-fluoropyridin-2-yl)phenol 1.35hydrochloride], the IC50 was found to be 598 nM in the experiment on P. falciparum strain W2 (setting [1]) and 1330 nM in the experiment on P. falciparum strain D6 (setting [2]).
On the same counts, the results for `CC(C)(C)NCc1cc(C(C)(C)C)cc(-c2ncccc2F)c1O` [Example 27, 4-(tert-Butyl)-2-((tert-butylamino)methyl)-6-(3-fluoropyridin-2-yl)phenol 1.7hydrochloride] are 3440 nM and 6860 nM.
